Source: patent US20250034201A1, “PRODRUGS OF GANAXOLONE” (priority 2022, published 2025)

How the values were obtained:
[1] = in vitro; type: in vitro ADME, human
Description: (§1) For several compounds only human liver microsomal stability was tested. […] The microsomal assays were carried out with and without the addition of NADPH at a final concentration of 1 mM. For negative control samples, NADPH reagent was not added. […] Note that compounds undergo only Phase I metabolism in liver microsomes.

[2] = Rat liver microsomal stability; type: in vitro ADME
Description: as §1
CLint=the intrinsic hepatic clearance (uL/min/mg), where CLint is equal to 0.693/(t1/2×Cmp)

[3] = in vitro; details: for Human plasma t90: 2 μg/mL, 37° C.; for Observations: stability / GNX production in human plasma / half-life: human, plasma
Description: The plasma stability of exemplary compounds was tested using rat, mice, dog, and human plasma, according to the following protocol. For each test compound, samples at a final concentration of 2 μg/mL were prepared in blank plasma of selected species. All samples were incubated at 37° C. on a 150-RPM orbital shaker, and an aliquot was removed at pre-determined time points (0, 15, 30, 60, and 120 minutes). Samples were precipitated with three volumes of acetonitrile containing propranolol as internal standard, and centrifuged for 10 min at 2000 g before LC/MS/MS analysis of the supernatant solutions.

[4] = human liver microsomes 0.5 mg/mL, with NADPH, compound 0.5 μM, 37° C., read-out: Human Liver Microsomal Stability t1/2
[5] = human liver microsomes 0.5 mg/mL, with NADPH, compound 0.5 μM, read-out: Human Liver Microsomal Stability CLint (uL/min/mg liver) (converted)
[6] = human liver microsomes, no NADPH, compound 0.5 μM

SMILES | Comments: production of GNX (ganaxolone) in human liver microsomes ([1]; human liver microsomes) | half-life [1, 4] | microsomal CLint [1, 5] | Human Liver Microsomal Stability no NADPH, % remain 1 h [1, 6] | other results
COCCN(C)CC(=O)O[C@]1(C)CC[C@@]2(C)[C@@H](CC[C@@H]3[C@@H]2CC[C@]2(C)[C@@H](C(C)=O)CC[C@@H]32)C1 [Compound 104] | GNX not produced in human or rat | 12 min | 116 µL/min/mg | 98% | Comments: production of GNX (ganaxolone) in rat liver microsomes ([2]; rat liver microsomes): GNX not produced in human or rat; half-life ([2]; rat liver microsomes 0.5 mg/mL, with NADPH, compound 0.5 μM, 37° C., read-out: Rat Liver Microsomal Stability t1/2): 7.41 min; microsomal CLint ([2]; rat liver microsomes 0.5 mg/mL, with NADPH, compound 0.5 μM, read-out: Rat Liver Microsomal Stability CLint (uL/min/mg liver)): 187 µL/min/mg; Rat Liver Microsomal Stability no NADPH, % remain 1 h ([2]; rat liver microsomes, no NADPH, 1 h, compound 0.5 μM): 99%
CC(=O)[C@H]1CC[C@H]2[C@@H]3CC[C@H]4C[C@](C)(OC(=O)CSCCOC(=O)CN5CCOCC5)CC[C@]4(C)[C@H]3CC[C@]12C [Compound 303] | In human GNX not produced | 2.48 min | 599 µL/min/mg | 90% | 
CC(=O)[C@H]1CC[C@H]2[C@@H]3CC[C@H]4C[C@](C)(OC(=O)COC(=O)OCCN(C)C)CC[C@]4(C)[C@H]3CC[C@]12C [Compound 220] |  | 11.8 min | 117 µL/min/mg | 4% | Human plasma t90 [3]: 3.18 min; Observations: stability / GNX production in human plasma [3]: In human no GNX; half-life [3]: 21.1 min
CCOCCC(=O)OCC(=O)O[C@]1(C)CC[C@@]2(C)[C@@H](CC[C@@H]3[C@@H]2CC[C@]2(C)[C@@H](C(C)=O)CC[C@@H]32)C1 [Compound 203] |  | 2.24 min | 618 µL/min/mg | 0.79% | 
CC(=O)[C@H]1CC[C@H]2[C@@H]3CC[C@H]4C[C@](C)(OC(=O)CNCC(=O)O)CC[C@]4(C)[C@H]3CC[C@]12C [Compound 124] | In human small amount of GNX produced | 532 min | 2.61 µL/min/mg | 99% | 
CC(=O)[C@H]1CC[C@H]2[C@@H]3CC[C@H]4C[C@](C)(OC(=O)CNCC(C)(C)N)CC[C@]4(C)[C@H]3CC[C@]12C [Compound 138] | In human small amount of GNX produced | 33.2 min | 41.8 µL/min/mg | 95.3% | 
CC(=O)[C@H]1CC[C@H]2[C@@H]3CC[C@H]4C[C@](C)(OC(=O)COC(=O)CN(C)C)CC[C@]4(C)[C@H]3CC[C@]12C [Compound 202] |  | 2.62 min | 529 µL/min/mg | 1.85% | 
CC(=O)[C@H]1CC[C@H]2[C@@H]3CC[C@H]4C[C@](C)(OC(=O)CNC(=O)CN5CCOCC5)CC[C@]4(C)[C@H]3CC[C@]12C [Compound 112] | In human no GNX produced | 46.7 min | 29.6 µL/min/mg | 98.6% | 
COCCOCCOCC(=O)OCC(=O)O[C@]1(C)CC[C@@]2(C)[C@@H](CC[C@@H]3[C@@H]2CC[C@]2(C)[C@@H](C(C)=O)CC[C@@H]32)C1 [Compound 205] |  | 3.58 min | 387 µL/min/mg | 5.7% | 
CC(=O)[C@H]1CC[C@H]2[C@@H]3CC[C@H]4C[C@](C)(OC(=O)COC(=O)CN5CCN(C)CC5)CC[C@]4(C)[C@H]3CC[C@]12C [Compound 208] | In human GNX not produced | 37 min | 37.4 µL/min/mg | 72% | Human plasma t90 [3]: 26.6 min; Observations: stability / GNX production in human plasma [3]: No GNX produced; half-life [3]: 177 min
COCCN(CCO)CC(=O)OC(C)(C)C(=O)OCC(=O)O[C@]1(C)CC[C@@]2(C)[C@@H](CC[C@@H]3[C@@H]2CC[C@]2(C)[C@@H](C(C)=O)CC[C@@H]32)C1 [Compound 235] |  | 5.2 min | 269 µL/min/mg | 36% | 
COCCN(CCOC(C)=O)CC(=O)OC(C)(C)C(=O)OCC(=O)O[C@]1(C)CC[C@@]2(C)[C@@H](CC[C@@H]3[C@@H]2CC[C@]2(C)[C@@H](C(C)=O)CC[C@@H]32)C1 [Compound 236] |  |  |  |  | half-life ([1]; human, microsomes): 3.72 min; microsomal CLint ([1]; human, microsomes): 372 µL/min/mg; Human Liver Microsomal Stability no NADPH, % remain 1 h ([1]; human, microsomes): <1%
CC(=O)[C@H]1CC[C@H]2[C@@H]3CC[C@H]4C[C@](C)(OC(=O)CN5CCC[C@H]5C(=O)O)CC[C@]4(C)[C@H]3CC[C@]12C [Compound 137] | In human no GNX produced | 908 min | 1.52 µL/min/mg | 95% | 
CC(=O)[C@H]1CC[C@H]2[C@@H]3CC[C@H]4C[C@](C)(OC(=O)CNC(C)(C)CO)CC[C@]4(C)[C@H]3CC[C@]12C [Compound 132] |  |  |  |  | half-life ([1]; human, microsomes): 11.7 min; microsomal CLint ([1]; human, microsomes): 118 µL/min/mg; Human Liver Microsomal Stability no NADPH, % remain 1 h ([1]; human, microsomes): 1%
CC(=O)[C@H]1CC[C@H]2[C@@H]3CC[C@H]4C[C@](C)(OC(=O)C5CC5C(=O)O)CC[C@]4(C)[C@H]3CC[C@]12C (stereo partly shown) [Compound 408] | In human no GNX produced | 143 min | 9.72 µL/min/mg | 76% | 
CC(=O)[C@H]1CC[C@H]2[C@@H]3CC[C@H]4C[C@](C)(OC(=O)CN(CCO)CCO)CC[C@]4(C)[C@H]3CC[C@]12C [Compound 142] |  |  |  |  | half-life ([1]; human, microsomes): 32.3 min; microsomal CLint ([1]; human, microsomes): 42.9 µL/min/mg; Human Liver Microsomal Stability no NADPH, % remain 1 h ([1]; human, microsomes): 99%
CC(=O)[C@H]1CC[C@H]2[C@@H]3CC[C@H]4C[C@](C)(OC(=O)CSCCN)CC[C@]4(C)[C@H]3CC[C@]12C [Compound 302] | In human GNX not produced |  |  |  | half-life ([1]; human, microsomes): 248 min; microsomal CLint ([1]; human, microsomes): 5.59 µL/min/mg; Human Liver Microsomal Stability no NADPH, % remain 1 h ([1]; human, microsomes): 99%
CC(=O)[C@H]1CC[C@H]2[C@@H]3CC[C@H]4C[C@](C)(OC(=O)C5CC5C(=O)NCCN(C)C)CC[C@]4(C)[C@H]3CC[C@]12C (stereo partly shown) [Compound 411] | In human small amount of GNX produced | 444 min | 3.12 µL/min/mg | 99% | 
CC(=O)[C@H]1CC[C@H]2[C@@H]3CC[C@H]4C[C@](C)(OC(=O)CNC(=O)C(C)(C)O)CC[C@]4(C)[C@H]3CC[C@]12C [Compound 141] | In human no GNX produced |  |  |  | half-life ([1]; human, microsomes): 38.3 min; microsomal CLint ([1]; human, microsomes): 36.2 µL/min/mg; Human Liver Microsomal Stability no NADPH, % remain 1 h ([1]; human, microsomes): 99.7%
CC(=O)[C@H]1CC[C@H]2[C@@H]3CC[C@H]4C[C@](C)(OC(=O)CCCN)CC[C@]4(C)[C@H]3CC[C@]12C [Compound 417] | In human no GNX produced | 494 min | 2.81 µL/min/mg | 99% | 
CC(=O)[C@H]1CC[C@H]2[C@@H]3CC[C@H]4C[C@](C)(OC(=O)COC(=O)[C@H](CC(C)C)NC(=O)[C@@H](N)CC(C)C)CC[C@]4(C)[C@H]3CC[C@]12C [Compound 215] |  | 257 min | 5.39 µL/min/mg | 88% | 
CC(=O)[C@H]1CC[C@H]2[C@@H]3CC[C@H]4C[C@](C)(OC(=O)C[C@H](N)C(=O)O)CC[C@]4(C)[C@H]3CC[C@]12C [Compound 414] | In human no GNX produced | 178 min | 7.81 µL/min/mg | 82% | 
CC(=O)[C@H]1CC[C@H]2[C@@H]3CC[C@H]4C[C@](C)(OC(=O)CCCCN)CC[C@]4(C)[C@H]3CC[C@]12C [Compound 418] | In human no GNX produced | 451 min | 3.08 µL/min/mg | 99% | 
CNC(C)(C)C(=O)OCC(=O)O[C@]1(C)CC[C@@]2(C)[C@@H](CC[C@@H]3[C@@H]2CC[C@]2(C)[C@@H](C(C)=O)CC[C@@H]32)C1 [Compound 232] |  | 13.5 min | 103 µL/min/mg | 27% | 
CC(=O)[C@H]1CC[C@H]2[C@@H]3CC[C@H]4C[C@](C)(OC(=O)CSC(C)(C)COC(=O)CN5CCOCC5)CC[C@]4(C)[C@H]3CC[C@]12C [Compound 310] | In human no GNX produced | 2.9 min | 474 µL/min/mg | 1% | 
